Structures can show the parent of a compound that is named as a salt.
Biological target: T1, human β3 (Homo sapiens, UniProt P13945)
T1 construct: the full length human β3 gene was obtained from a human genomic library; expressed in transfected cells; host or cells: CHO (Chinese hamster ovary) cells, pcDNA3 vector
Assay: Human β3-agonist activities (cAMP in CHO cells transfected with human β3 gene)
Type: cell-based
Details: CHO cells expressing human β3; for EC50: cAMP quantitated with EIA kit after 30 minutes, read-out: human β3-agonist activity (ED50); for Emax: read-out: intrinsic activity as compared with Isoproterenol
Protocol: Human β3-Agonist Activities
Human β3-agonist activities were determined using CHO (Chinese hamster ovary) cells transfected with pcDNA3 (mfd. by Invitrogen) to which human β3 gene had been inserted. Human β3 fragment was first obtained from human adipose tissue cDNA (mfd. by Clonetech) by PCR using the primer of β3 (Krief, et al., J. Clin. Invest., 91, p. 344 (1993)). The human β3 fragment obtained was then used as a probe and then the full length human β3 gene was obtained from a human genomic library (mfd. by Clonetech).
The above cells were cultured in a Ham F-12 medium supplemented with 10% fetal bovine serum (mfd. by Dainippon Pharmaceutical), 400 μg/mL geneticin (Gibco BRL), 100 U/mL penicillin and 100 μg/mL streptomycin. After placing these cells (5×10^5) into a 6-well plate and culturing them for 24 hours, they were allowed to stand on a serum-free Ham F-12 medium for 2 hours. The compound was first dissolved in DMSO, repeatedly diluted by ten times with Ham F-12 supplemented with 1 mM isobutylmethylxanthine and 1 mM ascorbic acid to a final concentration of from 10^−5 to 10^−12 M, and then added to the cells.
After the cells were cultured for 30 minutes, the medium was removed followed by addition of 0.5 mL of an aqueous 1 N sodium hydroxide solution. The medium was allowed to stand for 20 minutes and then 0.5 mL of an aqueous 1 N acetic acid solution was added to the medium. The medium was stirred and centrifuged followed by quantitating cAMP with cAMP EIA kit (mfd. by Cayman). Isoproterenol was purchased from RBI (Research Biochemicals International).

[1] = cAMP, relative to Isoproterenol

T1 sequence (P13945 whole entry): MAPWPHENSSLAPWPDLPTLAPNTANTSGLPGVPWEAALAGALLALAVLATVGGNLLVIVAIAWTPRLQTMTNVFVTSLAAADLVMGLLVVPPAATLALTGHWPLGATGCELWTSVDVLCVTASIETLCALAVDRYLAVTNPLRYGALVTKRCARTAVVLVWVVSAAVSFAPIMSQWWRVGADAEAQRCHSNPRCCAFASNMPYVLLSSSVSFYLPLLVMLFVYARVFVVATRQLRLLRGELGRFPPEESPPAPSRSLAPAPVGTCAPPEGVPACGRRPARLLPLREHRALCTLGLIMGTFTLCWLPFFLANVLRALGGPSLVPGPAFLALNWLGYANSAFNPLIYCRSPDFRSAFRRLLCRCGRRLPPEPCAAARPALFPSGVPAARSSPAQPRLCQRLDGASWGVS

| Structure (SMILES) | EC50 [nM] | Emax [1] [%] | intrinsic activity as compared with Isoproterenol [1] [%] |
| --- | --- | --- | --- |
| CS(=O)(=O)Nc1cc([C@@H](O)CNCCOc2ccc3c(c2)[nH]c2cc(O)ccc23)ccc1Cl [Example 3, (R)-N-[2-chloro-5-[2-[2-(7-hydroxy-9H-carbazol-2-yloxy)ethylamino]-1-hydroxyethyl]phenyl]methanesulfonamide Hydrochloride] | 1.5 | 75 |  |
| CC(=O)Nc1ccc2c(c1)[nH]c1cc(OCCNC[C@H](O)c3cccc(NS(C)(=O)=O)c3)ccc12 [Example 8, (R)-N-[3-[2-[2-(7-acetamido-9H-carbazol-2-yloxy)-ethylamino]-1-hydroxyethyl]phenyl]methanesulfonamide Hydrochloride] | 0.35 | 47 |  |
| CC(C)(C)C(=O)Oc1ccc2c(c1)[nH]c1cc(OCCNCC(O)c3cccc(NS(C)(=O)=O)c3)ccc12 (stereo not drawn) [Example 10] | 2.4 | 112 |  |
| COCCOc1ccc2c(c1)[nH]c1cc(OCCNC[C@H](O)c3cccc(NS(C)(=O)=O)c3)ccc12 [Example 43, (R)-N-[3-[1-hydroxy-2-[2-[7-(2-methoxyethoxy)-9H-carbazol-2-yloxy]ethylamino]ethyl]phenyl]methanesulfonamide Hydrochloride] | 0.69 | 114 |  |
| CS(=O)(=O)Nc1cccc([C@@H](O)CNCCOc2ccc3c(c2)[nH]c2cc(OCC(=O)O)ccc23)c1 [Example 45, (R)-N-[3-[2-[2-(7-hydroxycarbonylmethoxy-9H-carbazol-2-yloxy)ethylamino]-1-hydroxyethyl]phenyl]methanesulfonamide] | 2.6 | 114 |  |

Next, values leading:

| EC50 [nM] | Emax [1] [%] | intrinsic activity as compared with Isoproterenol [1] [%] | Structure (SMILES) |
| --- | --- | --- | --- |
| 0.8 | 82 |  | CS(=O)(=O)Nc1cccc([C@@H](O)CNCCOc2ccc3c(c2)[nH]c2cc(O)ccc23)c1 [Example 2, (R)-N-[3-[2-[2-(7-hydroxy-9H-carbazol-2-yloxy)ethylamino]-1-hydroxyethyl]phenyl]methanesulfonamide Hydrochloride] |
| 1 | 102 |  | CS(=O)(=O)Nc1cccc([C@@H](O)CNCCOc2ccc3c(c2)[nH]c2cc(N)ccc23)c1 [Example 9, (R)-N-[3-[2-[2-(7-amino-9H-carbazol-2-yloxy)ethylamino]-1-hydroxyethyl]phenyl]methanesulfonamide Dihydrochloride] |
| 0.22 |  | 94 | CCN(c1ccc2c(c1)[nH]c1cc(OCCNC[C@H](O)c3cccc(NS(C)(=O)=O)c3)ccc12)S(C)(=O)=O.Cl [Example 33, (R)-N-[3-[2-[2-[7-(N′-ethyl-N′-methylsulfonylamino)-9H-carbazol-2-yloxy]ethylamino]-1-hydroxyethyl]phenyl]methanesulfonamide Hydrochloride] |
| 0.16 | 96 |  | CS(=O)(=O)Nc1cccc([C@@H](O)CNCCOc2ccc3c(c2)[nH]c2cc(NS(C)(=O)=O)ccc23)c1 [Example 35, (R)-N-[3-[1-hydroxy-2-[2-(7-N′-methylsulfonylamino-9H-carbazol-2-yloxy)ethylamino]ethyl]phenyl]methanesulfonamide Hydrochloride] |

From patent publication US20030040538A1, “Novel substituted tricyclic compounds” (priority 1999, published 2003)
